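Grown in 96-well plates, cells were treated for 48 hours with each compound at five concentrations. Insufficient inhibition: endpoint recorded as highest concentration tested. GI50: concentration for 50% inhibition of growth.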 Calls of active or inactive are those of the source. No stated cut-off is given here; in the data, active = GI50 up to about 1.1 µM and inactive = higher.
Columns and labels:
Assay in all cases: NCI anticancer screen, dose series, 48 h
M14 = test system: M14
U-251 = test system: U-251
SR = test system: SR
SF-295 = test system: SF-295
SNB-75 = test system: SNB-75
SK-MEL-28 = test system: SK-MEL-28
CAKI-1 = test system: CAKI-1
HOP-62 = test system: HOP-62
SK-MEL-2 = test system: SK-MEL-2
UO-31 = test system: UO-31
TK-10 = test system: TK-10
COLO 205 = test system: COLO 205
SF-268 = test system: SF-268
Malme-3M = test system: Malme-3M
NCI-H522 = test system: NCI-H522
SNB-19 = test system: SNB-19
EKVX = test system: EKVX
BT-549 = test system: BT-549
PC-3 = test system: PC-3
MDA-MB-231 = test system: MDA-MB-231

Measured: GI50

O=C(/C=C/c1ccccc1)/C=C/c1ccccc1
inactive: M14 19.8 µM | U-251 20.6 µM | SR 26.2 µM | SF-295 53.5 µM | SNB-75 47.6 µM | SK-MEL-28 18.5 µM | CAKI-1 92.9 µM | HOP-62 > 100 µM | SK-MEL-2 > 100 µM | UO-31 43.5 µM | TK-10 58.2 µM | COLO 205 > 100 µM | SF-268 28.4 µM | Malme-3M 21.8 µM

CNS(=O)(=O)NNS(=O)(=O)c1ccccc1
inactive: M14 > 100 µM | U-251 > 100 µM | NCI-H522 > 100 µM | SNB-19 > 100 µM | SR > 100 µM | SF-295 > 100 µM | SNB-75 > 100 µM | SK-MEL-28 > 100 µM | CAKI-1 > 100 µM | HOP-62 > 100 µM | SK-MEL-2 > 100 µM | UO-31 > 100 µM | EKVX > 100 µM | TK-10 > 100 µM | COLO 205 > 100 µM | SF-268 > 100 µM | Malme-3M > 100 µM

C[Si](C)(C)OC1CC(=O)OC1n1cc(F)c(=O)[nH]c1=O (stereo unspecified)
inactive: M14 48.6 µM | U-251 43 µM | NCI-H522 19.5 µM | SNB-19 > 55.1 µM | SR 2.31 µM | SF-295 > 76.9 µM | SNB-75 65.9 µM | SK-MEL-28 15.8 µM | CAKI-1 23.9 µM | HOP-62 15.7 µM | SK-MEL-2 > 100 µM | UO-31 13 µM | EKVX 8.18 µM | TK-10 > 100 µM | COLO 205 21 µM | SF-268 50.7 µM | Malme-3M 19.2 µM

CSc1nc(C)cc(Nc2ccc(O)c(CN3CCCCC3)c2)n1
inactive: M14 16.3 µM | NCI-H522 72.1 µM | SNB-19 > 100 µM | SR 32.1 µM | SF-295 37.9 µM | SNB-75 > 100 µM | SK-MEL-28 28.8 µM | CAKI-1 > 100 µM | HOP-62 > 100 µM | UO-31 48.1 µM | EKVX 27.5 µM | COLO 205 29 µM | BT-549 > 100 µM | SF-268 > 100 µM | Malme-3M 48.6 µM

CNC(=O)N1CN(c2ccccc2)C2(CCN(Cc3ccccc3)CC2)C1=O
inactive: M14 > 100 µM | U-251 > 100 µM | NCI-H522 > 100 µM | SNB-19 > 100 µM | SR 15.7 µM | SF-295 > 100 µM | SNB-75 > 100 µM | SK-MEL-28 > 100 µM | CAKI-1 > 100 µM | HOP-62 > 100 µM | UO-31 11.3 µM | EKVX 74.6 µM | TK-10 62.5 µM | COLO 205 35.6 µM | PC-3 93.1 µM | MDA-MB-231 19.5 µM | SF-268 > 100 µM | Malme-3M 70.1 µM

Cc1ccc(C)c(N2C(=O)C(=O)C(c3nc4ccccc4s3)/C(=N\c3cccc4c(=O)[nH][nH]c(=O)c34)C2=O)c1 (stereo unspecified)
inactive: M14 > 100 µM | U-251 > 100 µM | SNB-19 > 100 µM | SR > 100 µM | SF-295 > 100 µM | SNB-75 97.9 µM | SK-MEL-28 > 100 µM | CAKI-1 > 100 µM | HOP-62 > 100 µM | SK-MEL-2 > 100 µM | UO-31 > 100 µM | EKVX > 100 µM | TK-10 > 100 µM | COLO 205 38.2 µM | SF-268 > 100 µM | Malme-3M > 100 µM

C=C(CCCCC)CN1CCCC1[C@@](C)(O)CC(=O)OCC (stereo partly specified)
inactive: M14 > 100 µM | U-251 > 100 µM | NCI-H522 > 100 µM | SNB-19 > 100 µM | SR 71.8 µM | SF-295 > 100 µM | SNB-75 > 100 µM | SK-MEL-28 > 100 µM | CAKI-1 > 100 µM | HOP-62 > 100 µM | SK-MEL-2 > 100 µM | UO-31 > 100 µM | EKVX > 100 µM | TK-10 > 100 µM | COLO 205 > 100 µM | SF-268 > 100 µM | Malme-3M > 100 µM

CCOC(CCCN1CCC2(CC1)C(=O)N(C)CN2c1ccccc1)(OCC)c1ccc(F)cc1
inactive: M14 10.7 µM | U-251 12.2 µM | NCI-H522 16.9 µM | SNB-19 10.2 µM | SF-295 12.7 µM | SNB-75 19.4 µM | SK-MEL-28 16.8 µM | CAKI-1 6.59 µM | HOP-62 4.6 µM | UO-31 7.01 µM | EKVX 2.14 µM | TK-10 7.66 µM | COLO 205 2.52 µM | PC-3 15.7 µM | MDA-MB-231 14.2 µM | SF-268 12.9 µM | Malme-3M 16.2 µM
